Measured values as given in US8563723B2, “Arylsulfonyl pyrazoline carboxamidine derivatives as 5-HT6 antagonists” (Abbott Healthcare Products, B.V., priority 2008, dated 2013).
Where two headings read alike, the source gives them in different places.

Key:
5-HT6 receptor [1] = biological target: T1, 5-HT6 receptor (Homo sapiens, UniProt P50406); experiment: In vitro functional activity ((ant)agonism) on human 5-HT6 receptors, CHO-human-5HT6-Aequorin assay; format: cell-based; design: host or cells: CHO AequoScreen recombinant cell line (expresses mitochondrial targeted apo-Aequorin)
T1 sequence (P50406 whole entry): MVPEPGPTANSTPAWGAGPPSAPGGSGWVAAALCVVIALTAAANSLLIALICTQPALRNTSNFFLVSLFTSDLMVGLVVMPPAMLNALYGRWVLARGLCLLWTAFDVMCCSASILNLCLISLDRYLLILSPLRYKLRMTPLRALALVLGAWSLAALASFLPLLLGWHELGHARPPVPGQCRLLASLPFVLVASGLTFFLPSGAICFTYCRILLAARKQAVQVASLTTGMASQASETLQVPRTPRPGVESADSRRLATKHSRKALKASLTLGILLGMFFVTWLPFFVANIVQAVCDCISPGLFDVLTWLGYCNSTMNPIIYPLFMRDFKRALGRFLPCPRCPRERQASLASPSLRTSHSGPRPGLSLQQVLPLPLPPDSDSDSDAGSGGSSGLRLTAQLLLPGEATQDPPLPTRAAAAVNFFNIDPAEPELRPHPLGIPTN

5-HT6 receptor [2] = biological target: T1, 5-HT6 receptor; experiment: In vitro affinity for human 5-HT6 receptors ([3H]-LSD binding, CHO cell membranes); design: host or cells: CHO/Gα16/mtAEQ/h5HT6-A1 cells; conditions: read-out: 5-HT6 pKi (converted)
in vitro [3] = conditions: rat, hepatocytes
in vitro [4] = conditions: human, hepatocytes
5-HT6 receptor [5] = biological target: T1, 5-HT6 receptor; conditions: 5-HT6 receptor (Sleight, 1998); cited from earlier work
[6] = Sleight, 1998; cited from earlier work
[7] = antagonism of 10^-8 M α-methylserotonin induced luminescence, main compound table, read-out: 5-HT6 pA2 (converted)
[8] = [3H]-LSD, membranes of CHO cells with human 5-HT6, main compound table
[9] = antagonism of 10^-8 M α-methylserotonin induced luminescence, main compound table
[10] = [3H]-LSD, membranes of CHO cells with human 5-HT6, comparison table Example 6
[11] = antagonism of 10^-8 M α-methylserotonin induced luminescence, comparison table Example 6

Row | Compound | Kb (5-HT6 receptor [1]; [7]) | Ki (5-HT6 receptor [2]; [8]) | further results
1 | CCN/C(=N\S(=O)(=O)c1ccc(N)cc1)N1CC(CC)C=N1 (single isomer, unassigned) [Compound 1] | 0.002 µM | 0.00316 µM | –
2 | CCN/C(=N\S(=O)(=O)c1ccc(N)cc1)N1CC(CC)C=N1 (single isomer, unassigned) [Compound 2] | – | 0.01 µM | –
3 | CCN/C(=N\S(=O)(=O)c1ccc(N)c(Cl)c1)N1CC(CC)C=N1 (single isomer, unassigned) [Compound 11] | 0.000501 µM | 0.001 µM | –
4 | CCN/C(=N\S(=O)(=O)c1ccc(N)c(Cl)c1)N1CC(CC)C=N1 (single isomer, unassigned) [Compound 12] | 0.001 µM | 0.00158 µM | –
5 | CCN/C(=N\S(=O)(=O)c1ccc(N)cc1)N1CC(C)(C)C=N1 [Compound 3, 4-Amino-N-[(4,4-dimethyl-4,5-dihydro-pyrazol-1-yl)-ethylamino-methylene]-benzenesulfonamide] | – | 0.0126 µM | 5-HT6 pA2 (5-HT6 receptor [1]; [9]): 7.6; half-life at 1 μg/ml (in vitro [3]): 71 min; half-life at 1 μg/ml (in vitro [4]): > 1000 min; Ki (5-HT6 receptor [2]; [10]): 0.0126 µM
6 | CCN/C(=N\S(=O)(=O)c1ccc(N)cc1)N1CC2(C=N1)CCCC2 [Compound 4, 4-Amino-N-[(2,3-diaza-spiro[4.4]non-3-en-2-yl)-ethylamino-methylene]benzene-sulfonamide] | – | 0.01 µM | Kb (5-HT6 receptor [1]; 5-HT6 pA2, antagonism of 10^-8 M α-methylserotonin induced luminescence, main compound table): 0.00501 µM; melting point: 141 to 142 °C
7 | CN/C(=N\S(=O)(=O)c1ccc(N)cc1)N1CC2(C=N1)CCOCC2 [Compound 8] | 0.158 µM | 0.2 µM | –
8 | CCN/C(=N\S(=O)(=O)c1ccc(N)c(Cl)c1)N1CC2(C=N1)CCCC2 [Compound 14] | – | 0.00158 µM | 5-HT6 pA2 (5-HT6 receptor [1]; [9]): 9.0; half-life at 1 μg/ml (in vitro [3]): 17 min; half-life at 1 μg/ml (in vitro [4]): 51 min; Ki (5-HT6 receptor [2]; [10]): 0.00158 µM
9 | CCN/C(=N\S(=O)(=O)c1ccc2c(c1)CCN2)N1CC(CC)C=N1 (stereo not shown) [Compound 16, 2,3-Dihydro-1H-indole-5-sulfonic acid ethylamino-(4-ethyl-4,5-dihydro-pyrazol-1-yl)-methyleneamide] | 0.01 µM | 0.0126 µM | –
10 | CCN/C(=N\S(=O)(=O)c1ccc2[nH]ccc2c1)N1CC(CC)C=N1 (stereo not shown) [Compound 18, 1H-Indole-5-sulfonic acid ethylamino-(4-ethyl-4,5-dihydro-pyrazol-1-yl)-methyleneamide] | – | 0.00398 µM | –
11 | CCN/C(=N\S(=O)(=O)c1ccc(O)cc1)N1CC(C)(C)C=N1 [Compound 22] | 0.00501 µM | 0.0126 µM | half-life at 1 μg/ml (in vitro [3]): 33 min; half-life at 1 μg/ml (in vitro [4]): 1440 min; Ki (5-HT6 receptor [2]; [10]): 0.0126 µM
12 | CCN/C(=N\S(=O)(=O)c1ccc(O)cc1)N1CC2(C=N1)CCCCC2 [Compound 24] | – | – | melting point: 140 to 142 °C
13 | CCN/C(=N\S(=O)(=O)c1ccc(O)cc1)N1N=CCC1c1ccccc1 (stereo not shown) [Compound 25, N-[Ethylamino-(5-phenyl-4,5-dihydro-pyrazol-1-yl)-methylene]-4-hydroxybenzene-sulfonamide] | – | – | melting point: 158 to 160 °C
14 | CCN/C(=N\S(=O)(=O)c1ccc(O)c(Cl)c1)N1CC(C)(C)C=N1 [Compound 27] | 0.0251 µM | 0.0158 µM | –
15 | CCN/C(=N\S(=O)(=O)c1cccc(Cl)c1)N1CC(C)(C)C=N1 [Compound 33 from WO 2008/034863, reference compound] | – | – | 5-HT6 pA2 (5-HT6 receptor [1]; [11]): 7.8; Ki (5-HT6 receptor [2]): 0.0251 µM
16 | CCN/C(=N\S(=O)(=O)c1ccc(CO)cc1)N1CC2(C=N1)CCCC2 [Compound 40, N-[(2,3-Diaza-spiro[4.4]non-3-en-2-yl)-ethylamino-methylene]-4-hydroxymethyl-benzenesulfonamide] | – | 0.631 µM | –
17 | CCN/C(=N\S(=O)(=O)c1ccc(C(N)=O)cc1)N1CC(CC)C=N1 (stereo not shown) [Compound 43, 4-{[Ethylamino-(4-ethyl-4,5-dihydro-pyrazol-1-yl)-methylene]-sulfamoyl}-benzamide] | – | – | melting point: 146 to 149 °C
18 | CCN/C(=N\S(=O)(=O)c1cccc(C(N)=O)c1)N1CC(CC)C=N1 (stereo not shown) [Compound 44, 3-{[Ethylamino-(4-ethyl-4,5-dihydro-pyrazol-1-yl)-methylene]-sulfamoyl}-benzamide] | – | – | melting point: 164 to 168 °C
19 | CCN/C(=N\S(=O)(=O)c1ccc(N)cc1)N1CC2(C=N1)CCNCC2 [Compound 47, 4-Amino-N-[ethylamino-(2,3,8-triaza-spiro[4.5]dec-3-en-2-yl)-methylene]-benzenesulfonamide] | – | – | 5-HT6 pA2 (5-HT6 receptor [1]; [9]): 8.6
20 | CCN/C(=N\S(=O)(=O)c1cccc(Cl)c1)N1CC2(C=N1)CCCC2 [Compound 49 from WO 2008/034863, reference compound] | – | – | 5-HT6 pA2 (5-HT6 receptor [1]; [11]): 8.2; Ki (5-HT6 receptor [2]; [10]): 0.00501 µM
21 | CCN/C(=N\S(=O)(=O)c1ccc2[nH]ccc2c1)N1CC2(C=N1)CCNCC2 [Compound 49] | – | – | 5-HT6 pA2 (5-HT6 receptor [1]; [9]): 8.8
22 | CCN/C(=N\S(=O)(=O)c1ccc(O)cc1)N1CC2(C=N1)CCNCC2 [Compound 50] | – | 0.0126 µM | –
23 | CCN/C(=N\S(=O)(=O)c1cc(O)cc(Cl)c1)N1CC(CC)C=N1 (stereo not shown) [Compound 53] | – | 0.00501 µM | melting point: 146 to 147 °C
24 | CCN/C(=N\S(=O)(=O)c1cc(O)cc(Cl)c1)N1CC2(C=N1)CCCC2 [Compound 54] | – | – | melting point: 157 to 158 °C
25 | CCN/C(=N\S(=O)(=O)c1cc(O)cc(Cl)c1)N1CC2(C=N1)CCCCC2 [Compound 55] | 0.0002 µM | – | –
26 | CCN/C(=N\S(=O)(=O)c1ccc2[nH]ccc2c1)N1CC(C)(C)C=N1 [Compound 57] | 0.00251 µM | 0.00794 µM | –
27 | CCN/C(=N\S(=O)(=O)c1ccc(OC)cc1)N1CC(CC)C=N1 (stereo not shown) [Compound 81 from WO 2008/034863, reference compound] | – | – | Kb (5-HT6 receptor [1]; antagonism of 10^-8 M α-methylserotonin induced luminescence, comparison table Example 6, read-out: 5-HT6 pA2 (converted)): 0.1 µM; half-life at 1 μg/ml (in vitro [3]): 16 min; half-life at 1 μg/ml (in vitro [4]): 68 min; Ki (5-HT6 receptor [2]; [10]): 0.0631 µM
28 | CNc1cc(NS(=O)(=O)c2ccc(N)cc2)nc(NC)n1 [Ro 04-6790] | – | – | Ki (5-HT6 receptor [5]): 0.05 µM; pharmacokinetics [6]: poor
29 | CNc1cc(NS(=O)(=O)c2ccc(N)cc2)cc(NC)n1 [Ro 63-0563] | – | – | Ki (5-HT6 receptor [5]): 0.012 µM; pharmacokinetics [6]: poor

Second part, led by results:

Row | Kb (5-HT6 receptor [1]; [7]) | Ki (5-HT6 receptor [2]; [8]) | Compound | further results
30 | 0.001 µM | 0.002 µM | CCN/C(=N\S(=O)(=O)c1ccc(O)cc1)N1CC(CC)C=N1 (single isomer, unassigned) [Compound 20] | –
31 | 0.00631 µM | 0.01 µM | CCN/C(=N\S(=O)(=O)c1ccc(O)cc1)N1CC(CC)C=N1 (single isomer, unassigned) [Compound 21] | –
32 | 0.0794 µM | 0.1 µM | N/C(=N\S(=O)(=O)c1ccc(N)cc1)N1CC2(C=N1)CCCC2 [Compound 5] | –
33 | 0.0251 µM | 0.0631 µM | CCN/C(=N\S(=O)(=O)c1ccc(N)cc1)N1CC2(C=N1)CCOCC2 [Compound 7] | –
34 | 0.2 µM | 0.251 µM | N/C(=N\S(=O)(=O)c1ccc(N)cc1)N1CC2(C=N1)CCOCC2 [Compound 9] | –
35 | 0.00316 µM | 0.00631 µM | CCN/C(=N\S(=O)(=O)c1ccc(N)c(Cl)c1)N1CC(C)(C)C=N1 [Compound 13, 4-Amino-3-chloro-N-[(4,4-dimethyl-4,5-dihydro-pyrazol-1-yl)-ethylamino-methylene]-benzenesulfonamide] | half-life at 1 μg/ml (in vitro [3]): 22 min; half-life at 1 μg/ml (in vitro [4]): 700 min; Ki (5-HT6 receptor [2]; [10]): 0.00631 µM
36 | 0.00251 µM | 0.00316 µM | CCN/C(=N\S(=O)(=O)c1ccc(O)cc1)N1CC(CC)C=N1 (stereo not shown) [Compound 19, N-[Ethylamino-(4-ethyl-4,5-dihydro-pyrazol-1-yl)-methylene]-4-hydroxybenzenesulfonamide] | half-life at 1 μg/ml (in vitro [3]): 19 min; half-life at 1 μg/ml (in vitro [4]): 354 min; Ki (5-HT6 receptor [2]; [10]): 0.00316 µM
37 | – | 0.01 µM | CCN/C(=N\S(=O)(=O)c1ccc(O)c(Cl)c1)N1CC(CC)C=N1 (stereo not shown) [Compound 26, 3-Chloro-N-[ethylamino-(4-ethyl-4,5-dihydro-pyrazol-1-yl)-methylene]-4-hydroxy-benzenesulfonamide] | –
38 | 0.1 µM | 0.0631 µM | CCN/C(=N\S(=O)(=O)c1cccc(N)c1)N1CC(CC)C=N1 (stereo not shown) [Compound 29] | –
39 | 0.126 µM | 0.251 µM | CCN/C(=N\S(=O)(=O)c1cccc(N)c1)N1CC(C)(C)C=N1 [Compound 30, 3-Amino-N-[(4,4-dimethyl-4,5-dihydro-pyrazol-1-yl)-ethylamino-methylene]-benzenesulfonamide] | –
40 | – | 0.501 µM | CCN/C(=N\S(=O)(=O)c1ccc2c(c1)NCC2)N1CC(CC)C=N1 (stereo not shown) [Compound 33, 2,3-Dihydro-1H-indole-6-sulfonic acid ethylamino-(4-ethyl-4,5-dihydro-pyrazol-1-yl)-methyleneamide] | –
41 | 0.0316 µM | 0.0501 µM | CCN/C(=N\S(=O)(=O)c1cccc(O)c1)N1CC(C)(C)C=N1 [Compound 36, N-[(4,4-Dimethyl-4,5-dihydro-pyrazol-1-yl)-ethylamino-methylene]-3-hydroxy-benzenesulfonamide] | –
42 | – | 0.00794 µM | CCN/C(=N\S(=O)(=O)c1cc(O)cc(Cl)c1)N1CC2(C=N1)CCNCC2 [Compound 52] | melting point: 112 to 114 °C
43 | – | 0.0158 µM | CCN/C(=N\S(=O)(=O)c1ccc2c(c1)CCN2)N1CC(C)(C)C=N1 [Compound 56] | –
44 | – | 0.00794 µM | CCN/C(=N\S(=O)(=O)c1ccc2c(c1)CCN2)N1CC2(C=N1)CCCCC2 [Compound 59] | –
45 | – | 0.00316 µM | CCN/C(=N\S(=O)(=O)c1ccc2[nH]ccc2c1)N1CC2(C=N1)CCCCC2 [Compound 60] | –
